Where two headings read alike, the source gives them in different places.
Experiments:
[1] = target: T1, EIF2AK3 (PERK) catalytic domain (amino acids 536-1116) (Homo sapiens, UniProt Q9NZJ5); experiment: PERK In Vitro Activity Assay (Isolated), TR-FRET kinase assay; assay type: biochemical; conditions: isolated PERK enzyme, 1.5 μM ATP
T1 construct: EIF2AK3 (PERK) catalytic domain (amino acids 536-1116); purchased Invitrogen, Carlsbad, Calif
T1 sequence (Q9NZJ5 536-1116): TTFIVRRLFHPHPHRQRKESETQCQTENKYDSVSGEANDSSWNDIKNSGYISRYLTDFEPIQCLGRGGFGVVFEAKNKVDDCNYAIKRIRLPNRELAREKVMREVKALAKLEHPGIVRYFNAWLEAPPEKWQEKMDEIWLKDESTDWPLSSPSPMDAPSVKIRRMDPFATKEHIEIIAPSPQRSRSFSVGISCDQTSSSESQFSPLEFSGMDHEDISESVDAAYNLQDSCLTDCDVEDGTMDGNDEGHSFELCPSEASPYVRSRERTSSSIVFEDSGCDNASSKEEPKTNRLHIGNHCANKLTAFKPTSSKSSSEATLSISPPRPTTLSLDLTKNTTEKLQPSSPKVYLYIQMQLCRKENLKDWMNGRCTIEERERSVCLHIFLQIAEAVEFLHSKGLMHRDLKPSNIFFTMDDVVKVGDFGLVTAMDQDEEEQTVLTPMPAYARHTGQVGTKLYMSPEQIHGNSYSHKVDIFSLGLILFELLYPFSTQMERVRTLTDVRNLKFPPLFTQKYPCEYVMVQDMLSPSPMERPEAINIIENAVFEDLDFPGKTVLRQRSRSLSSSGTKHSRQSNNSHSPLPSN
Description: Perform TR-FRET kinase assays in the absence or presence of inhibitors in a reaction buffer consisting of 50 mM HEPES, pH 7.5, 10 mM MgCb, 1.0 mM EGTA, and 0.01% Brij-35, and 100-200 nM GFP-eIF2a substrate. […] Add test compound, initiate the reaction by addition of enzyme, and incubate at room temperature for 45 minutes. Stop the reaction by addition of EDTA to a final concentration of 10 mM, add Terbium-labelled phospho-eIF2a antibody at a final concentration of 2 nM, and incubate for 90 minutes. Monitor the resulting fluorescence in an EnVison® Multilabel reader (PerkinElmer, Waltham, Mass.).

HEK293-EGFP-eIF2a cells = experiment: PERK Cellular Assay (TR-FRET, GFP-eIF2α, tunicamycin-induced ER stress); assay type: cell-based, human
Description: Stable cell lines were created in HEK293 cells using lentiviral particles harboring an expression vector for GFP-eIF2α. Cells were selected using puromycin and enriched using fluorescence activated cell sorting against GFP. HEK293-EGFP-eIF2a cells were plated at 5000 cells/well in 384-well assay plates and incubated overnight at 37° C., 5% CO2. Inhibitor compounds were added to the wells by Echo acoustic dispensing and incubated for 30 minutes at 37° C., 5% CO2 prior to induction of ER stress by addition of tunicamycin to […] for 2 hours. Cells were lysed and TR-FRET was measured in an EnVision plate reader (PerkinElmer). FRET ratio data was normalized to signal from lysates treated with DMSO vehicle control and plotted as percent inhibition against 10-point; 3-fold dilution series of inhibitors. IC50 values were calculated using 4-parameter logistical fitting in XLFit.

[2] = Homo sapiens, 2 h, HEK293-EGFP-eIF2a cells, tunicamycin 2 hours, TR-FRET, read-out: Cellular eIF2α IC50
[3] = HEK293-EGFP-eIF2a cells, tunicamycin 2 hours, TR-FRET, read-out: Cellular eIF2α IC50

Row | IC50 ([1]; read-out: Biochemical IC50) | Structure (SMILES) | IC50 (HEK293-EGFP-eIF2a cells; [2]) | IC50 (HEK293-EGFP-eIF2a cells; [3]) | IC50 (HEK293-EGFP-eIF2a cells; Homo sapiens, 2 h, read-out: Cellular eIF2α IC50 (μM)) | IC50 ([1]; Biochemical IC50 (μM))
1 | 0.026 to 0.05 µM | Cc1nc(N)c2c(-c3ccc4c(c3F)CCN4C(=O)C(O)c3ccccc3)cn(C)c2n1 (racemic) [Example 5, 1-(5-(4-amino-2,7-dimethyl-7H-pyrrolo[2,3-d]pyrimidin-5-yl)-4-fluoroindolin-1-yl)-2-hydroxy-2-phenylethanone] | – | – | – | –
2 | 0.001 to 0.025 µM | Cc1nc(N)c2c(-c3ccc4c(c3F)CCN4C(=O)C(O)c3cc(F)cc(F)c3)cn(C)c2n1 (racemic) [Example 10, 1-(5-(4-amino-2,7-dimethyl-7H-pyrrolo[2,3-d]pyrimidin-5-yl)-4-fluoroindolin-1-yl)-2-(3,5-difluorophenyl)-2-hydroxyethanone] | 0.001 to 0.025 µM | – | – | –
3 | 0.051 to 0.1 µM | Cn1cc(-c2ccc3c(c2F)CCN3C(=O)C(O)c2ccccc2)c2c(N)ncnc21 (single isomer, unassigned) [Example 2, 1-(5-(4-amino-7-methyl-7H-pyrrolo[2,3-d]pyrimidin-5-yl)-4-fluoroindolin-1-yl)-2-hydroxy-2-phenylethanone] | – | 0.101 to 0.25 µM | – | –
4 | 0.101 to 0.25 µM | CC(C)NC(=O)c1cc(-c2ccc3c(c2F)CCN3C(=O)C(O)c2cc(F)cc(F)c2)cnc1N (single isomer, unassigned) [Example 6, 2-amino-5-(1-(2-(3,5-difluorophenyl)-2-hydroxyacetyl)-4-fluoroindolin-5-yl)-N-isopropylnicotinamide] | – | 0.251 to 0.5 µM | – | –
5 | 0.026 to 0.05 µM | Cc1cn2c(C3CC(C)(O)C3)nc(-c3ccc4c(c3F)CCN4C(=O)C(O)c3cccc(F)c3)c2c(N)n1 (single isomer, unassigned) [Example 13, 1-(5-(8-amino-3-(3-hydroxy-3-methylcyclobutyl)-6-methylimidazo[1,5-a]pyrazin-1-yl)-4-fluoroindolin-1-yl)-2-(3-fluorophenyl)-2-hydroxyethanone] | – | 0.251 to 0.5 µM | – | –
6 | 0.051 to 0.1 µM | Cc1cccc(C(O)C(=O)N2CCc3c2ccc(-c2nc(C4CC(C)(O)C4)n4cc(C)nc(N)c24)c3F)n1 (single isomer, unassigned) [Example 18, 1-(5-(8-amino-3-(3-hydroxy-3-methylcyclobutyl)-6-methylimidazo[1,5-a]pyrazin-1-yl)-4-fluoroindolin-1-yl)-2-hydroxy-2-(6-methylpyridin-2-yl)ethanone] | – | 3 to 4 µM | – | –
7 | 0.001 to 0.025 µM | Cc1nc(N)c2c(-c3ccc4c(c3)CCN4C(=O)C(O)c3cc(F)cc(C(F)(F)F)c3)cn(C)c2n1 (single isomer, unassigned) [Example 19, 1-(5-(4-amino-2,7-dimethyl-7H-pyrrolo[2,3-d]pyrimidin-5-yl)indolin-1-yl)-2-(3-fluoro-5-(trifluoromethyl)phenyl)-2-hydroxyethanone] | – | 0.101 to 0.25 µM | – | –
8 | 0.026 to 0.05 µM | Cc1cccc(CC(=O)N2CCc3c2ccc(-c2nc(C)n4ccnc(N)c24)c3F)n1 [Example 23, 1-(5-(8-amino-3-methylimidazo[1,5-a]pyrazin-1-yl)-4-fluoroindolin-1-yl)-2-(6-methylpyridin-2-yl)ethanone] | 0.026 to 0.05 µM | – | – | –
9 | 0.051 to 0.1 µM | CCc1cnc(N)c2c(-c3ccc4c(c3F)CCN4C(=O)Cc3cccc(C)n3)nc(C)n12 [Example 25, 1-(5-(8-amino-5-ethyl-3-methylimidazo[1,5-a]pyrazin-1-yl)-4-fluoroindolin-1-yl)-2-(6-methylpyridin-2-yl)ethanone] | 0.051 to 0.1 µM | – | – | –

The remaining lines, values behind:

Row | Structure (SMILES) | IC50 ([1]; read-out: Biochemical IC50) | IC50 (HEK293-EGFP-eIF2a cells; [2]) | IC50 (HEK293-EGFP-eIF2a cells; [3]) | IC50 (HEK293-EGFP-eIF2a cells; Homo sapiens, 2 h, read-out: Cellular eIF2α IC50 (μM)) | IC50 ([1]; Biochemical IC50 (μM))
10 | Cc1nc(N)c2c(-c3ccc4c(c3F)CCN4C(=O)C(O)c3cccc(F)c3)cn(C)c2n1 (racemic) [Example 9, 1-(5-(4-amino-2,7-dimethyl-7H-pyrrolo[2,3-d]pyrimidin-5-yl)-4-fluoroindolin-1-yl)-2-(3-fluorophenyl)-2-hydroxyethanone] | – | 0.051 to 0.1 µM | – | – | –
11 | Cn1cc(-c2ccc3c(c2F)CCN3C(=O)C(O)c2ccccc2)c2c(N)ncnc21 (single isomer, unassigned) [Example 1, 1-(5-(4-amino-7-methyl-7H-pyrrolo[2,3-d]pyrimidin-5-yl)-4-fluoroindolin-1-yl)-2-hydroxy-2-phenylethanone] | 0.001 to 0.025 µM | – | 0.001 to 0.025 µM | – | –
12 | Cn1cc(-c2ccc3c(c2F)CCN3C(=O)C(N)c2ccccc2)c2c(N)ncnc21 (single isomer, unassigned) [Example 3, 2-amino-1-(5-(4-amino-7-methyl-7H-pyrrolo[2,3-d]pyrimidin-5-yl)-4-fluoroindolin-1-yl)-2-phenylethanone] | 0.051 to 0.1 µM | 0.051 to 0.1 µM | – | – | –
13 | Cn1cc(-c2ccc3c(c2F)CCN3C(=O)C(N)c2ccccc2)c2c(N)ncnc21 (single isomer, unassigned) [Example 4, 2-amino-1-(5-(4-amino-7-methyl-7H-pyrrolo[2,3-d]pyrimidin-5-yl)-4-fluoroindolin-1-yl)-2-phenylethanone] | 0.101 to 0.25 µM | – | 0.051 to 0.1 µM | – | –
14 | CC(C)NC(=O)c1cc(-c2ccc3c(c2F)CCN3C(=O)C(O)c2cc(F)cc(F)c2)cnc1N (single isomer, unassigned) [Example 7, 2-amino-5-(1-(2-(3,5-difluorophenyl)-2-hydroxyacetyl)-4-fluoroindolin-5-yl)-N-isopropylnicotinamide] | 0.051 to 0.1 µM | – | 0.101 to 0.25 µM | – | –
15 | Cc1cn2c(C3CC(C)(O)C3)nc(-c3ccc4c(c3F)CCN4C(=O)C(O)c3cccc(F)c3)c2c(N)n1 (single isomer, unassigned) [Example 14, 1-(5-(8-amino-3-(3-hydroxy-3-methylcyclobutyl)-6-methylimidazo[1,5-a]pyrazin-1-yl)-4-fluoroindolin-1-yl)-2-(3-fluorophenyl)-2-hydroxyethanone] | 0.001 to 0.025 µM | – | 0.051 to 0.1 µM | – | –
16 | Cc1cccc(C(O)C(=O)N2CCc3c2ccc(-c2nc(C4CC(C)(O)C4)n4cc(C)nc(N)c24)c3F)n1 (single isomer, unassigned) [Example 17, 1-(5-(8-amino-3-(3-hydroxy-3-methylcyclobutyl)-6-methylimidazo[1,5-a]pyrazin-1-yl)-4-fluoroindolin-1-yl)-2-hydroxy-2-(6-methylpyridin-2-yl)ethanone] | 0.051 to 0.1 µM | > 5 µM | – | – | –
17 | Cc1nc(N)c2c(-c3ccc4c(c3)CCN4C(=O)C(O)c3cc(F)cc(C(F)(F)F)c3)cn(C)c2n1 (single isomer, unassigned) [Example 20, 1-(5-(4-amino-2,7-dimethyl-7H-pyrrolo[2,3-d]pyrimidin-5-yl)indolin-1-yl)-2-(3-fluoro-5-(trifluoromethyl)phenyl)-2-hydroxyethanone] | 0.026 to 0.05 µM | – | 0.026 to 0.05 µM | – | –
18 | Cc1cccc(CC(=O)N2CCc3c2ccc(-c2cn(C)c4nc(C)nc(N)c24)c3F)n1 [Example 21, 1-(5-(4-amino-2,7-dimethyl-7H-pyrrolo[2,3-d]pyrimidin-5-yl)-4-fluoroindolin-1-yl)-2-(6-methylpyridin-2-yl)ethanone] | 0.001 to 0.025 µM | 0.026 to 0.05 µM | – | – | –
19 | Cn1cc(-c2ccc3c(c2F)CCN3C(=O)Cc2cccc(C(F)(F)F)n2)c2c(N)ncnc21 [Example 22, 1-(5-(4-amino-7-methyl-7H-pyrrolo[2,3-d]pyrimidin-5-yl)-4-fluoroindolin-1-yl)-2-(6-(trifluoromethyl)pyridin-2-yl)ethanone] | – | – | – | 0.001 to 0.025 µM | 0.001 to 0.025 µM
20 | Cc1cccc(CC(=O)N2CCc3c2ccc(-c2nc(C)n4c(C)cnc(N)c24)c3F)n1 [Example 24, 1-(5-(8-amino-3,5-dimethylimidazo[1,5-a]pyrazin-1-yl)-4-fluoroindolin-1-yl)-2-(6-methylpyridin-2-yl)ethanone] | 0.051 to 0.1 µM | 0.026 to 0.05 µM | – | – | –
21 | Cc1cccc(CC(=O)N2CCc3c2ccc(-c2nc(C)n4cc(C)nc(N)c24)c3F)n1 [Example 26, 1-(5-(8-amino-3,6-dimethylimidazo[1,5-a]pyrazin-1-yl)-4-fluoroindolin-1-yl)-2-(6-methylpyridin-2-yl)ethanone] | 0.101 to 0.25 µM | 0.101 to 0.25 µM | – | – | –

Reference: patent US20220348584A1, “PERK INHIBITING INDOLINYL COMPOUNDS” (HiberCell, Inc., priority 2019, published 2022)
